# Assays:
# Type in all cases: cell-based, human
# [1] = test system: 201B7 cell line (iPS cells); assay: Cardiomyocyte induction, conventional method (comparative example); cTNT-positive cells by flow cytometry; conditions: Day 20; 1 μM IWP-3 with 10 ng/mL VEGF Day 4 to Day 8; no dissociation/reaggregation
# Method: Three days before differentiation induction (Day −3), the 201B7 cell line was treated with Collagenase type B solution (Roche) for 5 minutes, and the solution was then removed, followed by treating the cells with 0.25% trypsin-EDTA (Invitrogen) for 2 to 3 minutes. After washing the cells with PBS solution (Nacalai Tesque), the obtained iPS cells were detached with a cell scraper and recovered. The iPS cells were then plated on a well of a Matrigel-coated 6-well plate, and cultured in MEF (mouse fetal fibroblast)-conditioned medium (MEF-CM) for 3 days.
# Subsequently (Day 0), treatment with Collagenase type B solution was carried out for 10 minutes. After removing the solution, the iPS cells were treated with 0.25% trypsin-EDTA for 1 to 2 minutes, and then detached with a cell scraper. STEMPRO 34 (Invitrogen) supplemented with 1% L-glutamine (Invitrogen), 150 μg/mL transferrin (Roche), 50 μg/mL ascorbic acid (Sigma), 3.9×10^−3% MTG (1-Thyoglycerol) (Sigma), 10 μM Rock inhibitor (Y-27632, Wako), and 2 ng/mL BMP4 (R&D) was added to the cells, and the cells were then divided into small clusters by pipetting. The resulting cell clusters were transferred to a well of a low-adhesion […], and culture was carried out at 37° C. under 5% oxygen to prepare embryoid bodies (EBs). […]
# (§1) After the culture (Day 20), the obtained cells were evaluated. […]
# [2] = test system: 201B7 cell line (iPS cells); assay: Modified method for inducing cardiomyocytes (IW); cTNT-positive cells by flow cytometry; conditions: Day 20
# Method: After treatment of the 201B7 cell line with CTK solution (ReproCELL) for 2 minutes, the solution was removed. Subsequently, the cells were treated with Accumax (Innovative Cell Technologies) for 5 minutes, and dissociated into single cells by pipetting. The cells were recovered by centrifugation, and plated on a low-adhesion 96-well dish (Corning) at 2500 cells/well. Culture was carried out at 37° C. under 5% oxygen in STEMPRO 34 supplemented with 1% L-glutamine, 150 μg/mL transferrin, 50 μg/mL ascorbic acid (Sigma), 3.9×10^−3% MTG, 10 μM Rock inhibitor, 2 ng/mL BMP4 (R&D), and 0.50% Matrigel (Growth Factor Reduced), to allow formation of EBs (Day 0). It was found, in this culture, that the efficiency of induction of cardiomyocytes decreases in cases where the EB cells are formed from not more than 1000 cells or not less than 4000 cells per well.
# On the next day (Day 1), an equal volume of STEMPRO 34 supplemented with 1% L-glutamine, 150 μg/mL transferrin, 50 μg/mL ascorbic acid, 3.9×10^−3% MTG, 18 ng/mL BMP4, 10 ng/mL bFGF, and 12 ng/mL activin A was added to the 96-well plate in which the EBs were cultured, and culture was carried out at 37° C. under 5% oxygen for 3 days.
# Subsequently (Day 4), the obtained EBs were allowed to naturally precipitate, and the medium was removed. […]
# as §1
# [3] = test system: 427F1, 610B1, 604A1, 648A1 and KhES3 cell lines; assay: IW and IWDS methods, timing of dissociation/reaggregation (2); conditions: IW method; dissociation at d2.5 to d4; evaluated at d15
# Description: (§2) In the modified method for inducing cardiomyocytes (IW) and the IWDS method described above, the timing of the dissociation into single cells and the reaggregation carried out on Day 4 was changed to investigate the effect of the change on pluripotent stem cell lines (KhES1 cell line, KhES3 cell line, MYH cell line, 409B2 cell line, 427F1 cell line, 606A1 cell line, 610B1 cell line, 457C1 cell line, 604A1 cell line, and 648A1 cell line) (FIG. 8). The culture from Day 1 in STEMPRO 34 supplemented with 1% L-glutamine, 150 μg/mL transferrin, 50 μg/mL ascorbic acid, 3.9×10^−3% MTG, 18 ng/mL BMP4, 10 ng/mL bFGF, and 12 ng/mL activin A was carried out for various periods within the range of 1.5 days to 5 days. Thereafter, dissociation and reaggregation of the obtained cells were carried out. That is, dissociation of each cell line was carried out at various times between Day 2.5 (d2.5) and Day 6 (d6) after the induction at intervals of 6 hours, followed by reaggregation culture.
# (§3) In the last step, the cells of each cell line were cultured under normal oxygen concentration until d15 in STEMPRO 34 supplemented with 1% L-glutamine, 150 μg/mL transferrin, 50 μg/mL ascorbic acid, 3.9×10^−3% MTG, 10 ng/mL VEGF, and 5 ng/mL bFGF, and evaluated based on the content of cTNT-positive cells.
# [4] = test system: MYH, 409B2, 606A1, 457C1 and KhES1 cell lines; assay: as above; conditions: IW method; dissociation at d2.5 to d5; evaluated at d15
# Description: as §2, §3
smiles,measurement,setting,value
Cc1ccc2nc(NC(=O)CSc3nc4c(c(=O)n3-c3ccc(F)cc3)SCC4)sc2c1 [IWP-3],content of cTNT-positive cells,[1],58.6%
same,content of cTNT-positive cells,"[2]; dissociation/reaggregation on Day 4, 1 μM IWP-3 with 10 ng/mL VEGF for 4 days",82.9%
same,content of cTNT-positive cells,"[2]; no dissociation into single cells on Day 4, medium with 1 μM IWP-3 and 10 ng/mL VEGF",69.3%
same,efficiency of cardiomyocyte induction (content of cTNT-positive cells),[3],high efficiency
same,efficiency of cardiomyocyte induction (content of cTNT-positive cells),[4],high efficiency

# Reference: patent publication US9822342B2, “Method of efficiently inducing cardiomyocytes” (KYOTO UNIVERSITY, priority 2013, dated 2017)
